From US12398111B2, “Triazine compounds and pharmaceutical use thereof” (Japan Tobacco Inc., priority 2014, dated 2025)

What was measured:
[1] = system: prostaglandins in guinea pig secondary aqueous humor; assay: Effect on prostaglandin composition in guinea pig aqueous humor (instillation of 0.003% ophthalmic solution, LC/MS/MS); type: in vivo, Hartley male guinea pig; settings: 24 hr after instillation of 0.003% ophthalmic solution
Method: A test article was dissolved in saline containing 0.5% polysorbate80 (Fluka) and 0.003% ophthalmic solution (pH 7.0-8.0) was prepared. The test article was administered to Hartley male guinea pig by instillation of 20 μL thereof to one eye by using a micropipette. After instillation, the lacrimal part was lightly fixed by gently pressing the lower eyelid for about 15 seconds. The opposite eye was treated in the same manner. To the vehicle group was administered the medium (0.5% polysorbate-containing saline) by a method similar to that for the test article. After 23 hr from the instillation, Mydrin P (registered trade mark) 0.5% ophthalmic solution (Santen Pharmaceutical Co., Ltd., general name: tropicamide/phenylephrine hydrochloride) was dropwisely added by one drop to the both eyes of a guinea pig to cause mydriasis. The guinea pig was anesthetized with Escain (registered trade mark) inhalation anesthetics (Pfizer Inc., general name: isoflurane), the cornea of the both eyes was tapped with a 30G injection needle, and the leaked aqueous humor (primary aqueous humor) was collected. One hour later (24 hr after instillation), the guinea pig was anesthetized again with isoflurane, and the secondary aqueous humor was collected in the same manner. The concentration of prostaglandins in the secondary aqueous humor obtained from each group (4 guinea pigs, 8 eyes) was measured by the LC/MS/MS system (Ultra high performance liquid chromatography: Nexera (registered trademark) manufactured by Shimadzu Corporation, mass spectrometer: […]), and the concentration ratio of each prostaglandin concentration relative to the total of all prostaglandin concentrations was calculated.

human mPGES-1 = target: T1, human mPGES-1 (Homo sapiens, UniProt O14684); assay: Evaluation of human mPGES-1 enzyme inhibitory activity (PGE2 measured by HTRF, microsome fraction of CHO-S cells expressing human mPGES-1); type: biochemical; settings: IC50 value; microsome fraction of CHO-S cells expressing human mPGES-1, PGE2 by HTRF
T1 construct: made in house; host or cells: FreeStyle CHO-S cells (Chinese hamster ovary), transient transfection with pcDNA3.1(+)/human mPGES-1; microsome fraction used
T1 sequence (O14684 1-152): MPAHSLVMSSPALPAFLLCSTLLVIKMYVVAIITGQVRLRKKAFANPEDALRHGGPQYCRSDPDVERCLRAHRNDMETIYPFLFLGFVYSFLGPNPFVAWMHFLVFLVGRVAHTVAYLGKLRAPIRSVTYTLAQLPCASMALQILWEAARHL
How it was run: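 Enzyme source: microsomes from CHO-S cells transfected with human mPGES-1 and cultured 48 hr, diluted to 5 μg/mL protein in reduced GSH (12.5 mmol/L KPB solution). Test articles were in 0.1 mol/L potassium phosphate pH 7.4, final DMSO 2% (v/v). PGE2 formed was quantified by HTRF.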

| Structure (SMILES) | IC50 (human mPGES-1) | 6-keto-PGF1α (%) [1] | PGD2 (%) [1] | PGE2 (%) [1] | PGF2α (%) [1] | TXB2 (%) [1] |
| --- | --- | --- | --- | --- | --- | --- |
| CC(C)(C(=O)NCc1ccc(Cl)c(-c2nc(O)nc(-c3ccc(F)c(C4CC4)c3)n2)c1)C(F)(F)F [Example 1-135, N-{4-chloro-3-[4-(3-cyclopropyl-4-fluorophenyl)-6-hydroxy-1,3,5-triazin-2-yl]benzyl}-3,3,3-trifluoro-2,2-dimethylpropionamide] | 0.5 nM | 19.4% | 10.9% | 56.1% | 12.7% | 0.9% |
| CO[C@](C)(C(=O)NCc1ccc(Cl)c(-c2nc(O)nc(-c3ccc(Cl)c(C)c3)n2)c1)C(F)(F)F [Example 1-136, (R)—N-{4-chloro-3-[4-(4-chloro-3-methylphenyl)-6-hydroxy-1,3,5-triazin-2-yl]benzyl}-3,3,3-trifluoro-2-methoxy-2-methylpropionamide] | 0.5 nM | 17.3% | 7.4% | 66.7% | 7.9% | 0.7% |
| CCCOc1ccc(-c2nc(O)nc(-c3cc(CNC(=O)[C@@](C)(OC)C(F)(F)F)ccc3Cl)n2)cc1 [Example 1-137, (R)—N-{4-chloro-3-[4-hydroxy-6-(4-propoxyphenyl)-1,3,5-triazin-2-yl]benzyl}-3,3,3-trifluoro-2-methoxy-2-methylpropionamide] | 0.5 nM | 24.8% | 14.1% | 49.5% | 11.3% | 0.3% |
| CC(C)COc1ccc(-c2nc(O)nc(-c3cc(CNC(=O)C4(C(F)(F)F)CC4)ccc3Cl)n2)cc1 [Example 1-178, 1-trifluoromethylcyclopropanecarboxylic acid 4-chloro-3-[4-hydroxy-6-(4-isobutoxyphenyl)-1,3,5-triazin-2-yl]benzylamide] | 1.4 nM | 36.6% | 20.1% | 30% | 13% | 0.3% |

Further lines, with some results ahead:

| IC50 (human mPGES-1) | Structure (SMILES) | 6-keto-PGF1α (%) [1] | PGD2 (%) [1] | PGE2 (%) [1] | PGF2α (%) [1] | TXB2 (%) [1] |
| --- | --- | --- | --- | --- | --- | --- |
| 0.4 nM | Cc1ccc(-c2nc(O)nc(-c3cc(CNC(=O)C(C)(C)C(F)(F)F)ccc3Cl)n2)cc1C [Example 1-150, N-{4-chloro-3-[4-(3,4-dimethylphenyl)-6-hydroxy-1,3,5-triazin-2-yl]benzyl}-3,3,3-trifluoro-2,2-dimethylpropionamide] | 14% | 8% | 69% | 8.9% | 0.2% |
| 2 nM | CC(C(=O)NCc1ccc(Cl)c(-c2nc(O)nc(-c3ccc(OCC4CC4)cc3)n2)c1)(C(F)(F)F)C(F)(F)F [Example 1-169, N-{4-chloro-3-[4-(4-cyclopropylmethoxyphenyl)-6-hydroxy-1,3,5-triazin-2-yl]benzyl}-3,3,3-trifluoro-2-methyl-2-trifluoromethylpropionamide] | 40.3% | 17% | 28.7% | 13.5% | 0.5% |
| 1.9 nM | C[C@H](Oc1ccc(-c2nc(O)nc(-c3cc(CNC(=O)C(C)(C)C(F)(F)F)ccc3Cl)n2)cc1)C1CC1 [Example 1-184, N-(4-chloro-3-{4-[4-((S)-1-cyclopropylethoxy)phenyl]-6-hydroxy-1,3,5-triazin-2-yl}benzyl)-3,3,3-trifluoro-2,2-dimethylpropionamide] | 21.2% | 10.7% | 57% | 10.3% | 0.8% |
| 1.7 nM | C[C@@H](Oc1ccc(-c2nc(O)nc(-c3cc(CNC(=O)C(C)(C)C(F)(F)F)ccc3Cl)n2)cc1)C1CC1 [Example 1-185, N-(4-chloro-3-{4-[4-((R)-1-cyclopropylethoxy)phenyl]-6-hydroxy-1,3,5-triazin-2-yl}benzyl)-3,3,3-trifluoro-2,2-dimethylpropionamide] | 25.4% | 12.1% | 50% | 11% | 1.6% |
| 3.7 nM | Cc1cccc(COc2cccc(C(F)(F)F)c2-c2nc(O)nc(-c3ccc(C#Cc4ccccc4)cc3)n2)n1.Cl [Example 2-98, 4-[2-(6-methylpyridin-2-ylmethoxy)-6-trifluoromethylphenyl]-6-(4-phenylethynylphenyl)-1,3,5-triazin-2-ol hydrochloride] | 27.3% | 20.1% | 37.8% | 14.8% | 0% |
